Test results published in PubChem BioAssay (NCI).
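Grown in 96-well plates, cells were treated for 48 hours with each compound at five concentrations. Insufficient inhibition: endpoint recorded as highest concentration tested. At the GI50, growth is halved. TGI: total growth inhibition.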

What was measured:
Experiment in all cases: inhibition of tumour cell growth, NCI panel, 48 h
[1] = tested on: U251 CNS
[2] = tested on: KM12 colon
[3] = tested on: CAKI-1 renal
[4] = tested on: K-562 leukemia
[5] = tested on: HL-60(TB) leukemia
[6] = tested on: HCC-2998 colon
[7] = tested on: OVCAR-5 ovarian
[8] = tested on: RXF 393 renal
[9] = tested on: SK-MEL-5 melanoma
[10] = tested on: SK-MEL-2 melanoma

SMILES | GI50 [1] [µM] | TGI [1] [µM] | GI50 [2] [µM] | TGI [2] [µM] | GI50 [3] [µM] | TGI [3] [µM] | GI50 [4] [µM] | TGI [4] [µM] | GI50 [5] [µM] | TGI [5] [µM] | GI50 [6] [µM] | TGI [6] [µM] | GI50 [7] [µM] | TGI [7] [µM] | GI50 [8] [µM] | TGI [8] [µM] | GI50 [9] [µM] | TGI [9] [µM] | GI50 [10] [µM] | TGI [10] [µM]
COc1ccc(F)cc1-c1ccnc2[nH]c(C3=CCN(C4CCC(CC(=O)O)CC4)CC3)cc12 (configuration not stated) | 0.137 | > 100 | 0.0953 | > 100 | 0.434 | > 100 | 0.316 | > 100 | 0.0739 | 1.45 | 0.299 | > 100 | 0.268 | > 100 | 0.0413 | 0.216 | 0.121 | 0.389 | – | –
COC(=O)[C@@H](C)C[C@H](Cc1ccccc1)NC(=O)c1csc([C@@H](C[C@H](C(C)C)N(C)C(=O)[C@@H](NC(=O)[C@H]2CCCCN2C)C(C(F)(F)F)C(F)(F)F)OC(C)=O)n1 | 0.0655 | > 16.7 | 0.0448 | 13.9 | – | – | 0.0124 | > 16.7 | 0.0134 | 0.115 | 0.0747 | > 16.7 | 0.0643 | > 16.7 | – | – | 0.0275 | 1.81 | 0.0777 | > 16.7
Nc1ccn(C2CC3OCC3O2)c(=O)n1 (configuration not stated) | – | > 100 | – | > 100 | – | > 100 | – | > 100 | – | > 100 | – | – | – | > 100 | – | – | – | > 100 | – | > 100
O=C(CCc1cc(-c2ccc(F)cc2)n[nH]1)N(Cc1ccccc1)Cc1ccccc1 | – | > 100 | – | > 100 | – | > 100 | – | > 100 | – | – | – | > 100 | – | > 100 | – | > 100 | – | > 100 | – | > 100
NC(=O)c1nc(-c2ccc(Cl)c(Cl)c2)nc2ccccc12 | – | > 100 | – | > 100 | – | > 100 | – | > 31.6 | – | > 100 | – | – | – | > 100 | – | > 22.2 | – | > 100 | – | > 100
CCCCOP1(=O)CC(C)=C(Cl)C(C)(OC)C1 (configuration not stated) | – | > 100 | – | > 100 | – | – | – | > 100 | – | 69 | – | > 100 | – | – | – | > 100 | – | > 100 | – | > 100
O/N=C1\C(=C\c2ccc3c(c2)OCCO3)CCCC1C(NO)c1ccc2c(c1)OCCO2 (configuration not stated) | – | 42.2 | – | 52 | – | > 100 | – | – | – | 71 | – | 65.3 | – | > 100 | – | 59.3 | – | 30.1 | – | –
N#C/C(=C1\OC(N)=C(c2ccc(Cl)cc2)C1=O)c1ccc(Cl)cc1 | – | 29.1 | – | 31.4 | – | 34.1 | – | > 100 | – | 44.4 | – | 30.9 | – | 9.74 | – | 25.4 | – | – | – | –
Cc1cc2nc(-c3ccc(O)c(O)c3)n(Cc3ccc(O)c(O)c3)c2cc1C | 5 | > 100 | 23.5 | > 100 | 17 | 81.1 | 7.43 | > 100 | 9.33 | 47.4 | 24.6 | 56.3 | > 100 | > 100 | 21.2 | > 100 | 17.5 | 39.9 | – | –
CCN(CC)CCNc1ccc([N+](=O)[O-])c2nc3ccc(OC)cc3c(N)c12 | – | 3.06 | – | 2.57 | – | 3.85 | – | 0.665 | – | 0.246 | – | – | – | 3.15 | – | 2.58 | – | 2.22 | – | 3.22
CC1=CC(=O)N2C(OC[C@@H]2c2ccccc2)O1 (some centres not stated) | – | > 100 | – | > 100 | – | > 100 | – | > 100 | – | > 100 | – | – | – | – | – | > 100 | – | > 100 | – | > 100
CC(=O)/C(=C/N1CCN(C(=O)c2ccco2)C1=S)C(=O)c1ccccc1 | 13.4 | > 50 | 8.4 | > 50 | 9.29 | 32.5 | 6.66 | 41.6 | 8.19 | 19.3 | – | – | – | – | – | – | 8.12 | 15.4 | – | –
CCOC(=O)C(=O)Nc1nc2ccc(C)cc2s1 | – | > 100 | – | > 100 | – | > 100 | – | > 100 | – | – | – | > 100 | – | > 100 | – | – | – | > 100 | – | > 100
CC/C(C)=C1\CCC(CN(C)C)C1=O (configuration not stated) | – | – | – | 28.4 | – | 4.36 | – | 79.5 | – | 43.7 | – | 39.9 | – | 33.6 | – | 40.4 | – | 91.5 | – | 32.5
N#CNC1=NCCC(=O)N1CCc1c[nH]c2ccccc12 | – | – | – | > 100 | – | – | – | > 100 | – | > 100 | – | > 100 | – | – | – | > 100 | – | > 100 | – | –
COc1cc(CCc2ccncc2)cc(OC)c1OC | – | > 100 | – | > 100 | – | > 100 | – | > 100 | – | > 100 | – | – | – | > 100 | – | > 100 | – | > 100 | – | –
